Our source for the IC50 values is patent US10577363B2, “Substituted piperidine compounds” (EPIZYME, INC., priority 2014, dated 2020).

Experiment [1] concerns the target T1, SMYD3 (Homo sapiens (Human), UniProt Q9H7B4). In words: SMYD3 biochemical assay (SPA, 3H-SAM methylation of MEKK2 protein substrate). Particulars: read-out: SMYD3 Biochem IC50. The procedure, abridged:
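SPA methyltransferase format: tag-cleaved human SMYD3, insect-cell GST-MEKK2 protein substrate, 3H-SAM donor, 30 min RT enzyme–compound preincubation, 100 uM cold SAM quench.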

The target of experiment [2] is T1, SMYD3. The experiment in a line: SMYD3 cell assay (Trimethyl-MEKK2 In-Cell Western in 293T/17 cells). Format: cell-based. Particulars: read-out: SMYD3 Cell IC50. The procedure, abridged:
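In-Cell Western readout: methanol-fixed cells stained for trimethyl-MEKK2 and flag tag, ratio per well normalized to DMSO and background controls.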

Setting [3] is: Table 1A, IC50 values are an average of n = 1 to n = 50.

T1 sequence (Q9H7B4 whole entry): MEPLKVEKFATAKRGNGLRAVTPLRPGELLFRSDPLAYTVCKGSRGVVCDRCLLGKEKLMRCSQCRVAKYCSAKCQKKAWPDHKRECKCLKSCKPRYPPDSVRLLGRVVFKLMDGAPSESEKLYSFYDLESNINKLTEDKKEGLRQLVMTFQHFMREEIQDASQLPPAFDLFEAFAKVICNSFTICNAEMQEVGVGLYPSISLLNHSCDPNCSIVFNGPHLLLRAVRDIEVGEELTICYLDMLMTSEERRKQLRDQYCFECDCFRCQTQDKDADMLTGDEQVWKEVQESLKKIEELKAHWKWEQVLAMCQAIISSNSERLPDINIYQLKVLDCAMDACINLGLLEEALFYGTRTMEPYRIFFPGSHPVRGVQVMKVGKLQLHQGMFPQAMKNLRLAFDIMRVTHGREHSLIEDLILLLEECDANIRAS

With `O=C(NC1CC2CCCC(C1)N2S(=O)(=O)CC1CCCNC1)c1cc(C2CC2)on1` (centres unmarked) [compound 488, 5-cyclopropyl-N-(9-((piperidin-3-ylmethyl)sulfonyl)-9-azabicyclo[3.3.1]nonan-3-yl)isoxazole-3-carboxamide], the IC50 at SMYD3 [1] turned out to be 45.1 nM; on SMYD3 [2] (setting [3]) it was 857 nM.
For `O=C(Nc1ccc(S(=O)(=O)N2[C@@H]3CC[C@H]2C[C@H](NC(=O)c2cc(C4CC4)on2)C3)cc1)c1ccncc1` [compound 489, 5-cyclopropyl-N-((1R,3s,5S)-8-((4-(isonicotinamido)phenyl)sulfonyl)-8-azabicyclo[3.2.1]octan-3-yl)isoxazole-3-carboxamide], the IC50 on SMYD3 [1] (setting [3]) amounted to 5420 nM; at SMYD3 [2] (setting [3]), 6660 nM.
On to `O=C1Cc2cc(S(=O)(=O)N3[C@@H]4CC[C@H]3C[C@H](NC(=O)c3cc(C5CC5)on3)C4)c(Cl)cc2N1` [compound 490, N-((1R,3s,5S)-8-((6-chloro-2-oxoindolin-5-yl)sulfonyl)-8-azabicyclo[3.2.1]octan-3-yl)-5-cyclopropylisoxazole-3-carboxamide], for which the figures for the IC50 on SMYD3 [1] (setting [3]) and on SMYD3 [2] (setting [3]) were 9230 nM and > 10000 nM, respectively.
Taken in the same sequence, the figures for `O=C(N[C@@H]1C[C@H]2CC[C@@H](C1)N2S(=O)(=O)c1cc2oc(=O)[nH]c2cc1Cl)c1cc(C2CC2)on1` [compound 491, N-((1R,3s,5S)-8-((5-chloro-2-oxo-2,3-dihydrobenzo[d]oxazol-6-yl)sulfonyl)-8-azabicyclo[3.2.1]octan-3-yl)-5-cyclopropylisoxazole-3-carboxamide] were > 10000 nM and > 10000 nM.
`O=C1Cc2cc(S(=O)(=O)N3[C@@H]4CC[C@H]3C[C@H](NC(=O)c3cc(C5CC5)on3)C4)ccc2N1` [compound 493, 5-cyclopropyl-N-((1R,3s,5S)-8-((2-oxoindolin-5-yl)sulfonyl)-8-azabicyclo[3.2.1]octan-3-yl)isoxazole-3-carboxamide]: the figures for the IC50 at SMYD3 [1] (setting [3]) and on SMYD3 [2] (setting [3]) were 842 nM and 2750 nM, respectively.
Taken in the same sequence, the figures for `O=C(N[C@@H]1C[C@H]2CC[C@@H](C1)N2S(=O)(=O)CCCN1CCOCC1)c1cc(C2CC2)on1` [compound 495, 5-cyclopropyl-N-((1R,3s,5S)-8-((3-morpholinopropyl)sulfonyl)-8-azabicyclo[3.2.1]octan-3-yl)isoxazole-3-carboxamide] were > 10000 nM and > 10000 nM.
Taken in the same sequence, the figures for `O=C(N[C@H]1C[C@H]2CC[C@@H](C1)N2S(=O)(=O)CCCN1CCOCC1)c1cc(C2CC2)on1` [compound 496, 5-cyclopropyl-N-((1R,3r,5S)-8-((3-morpholinopropyl)sulfonyl)-8-azabicyclo[3.2.1]octan-3-yl)isoxazole-3-carboxamide] were 162 nM and 854 nM.
`O=C(N[C@H]1CCN(S(=O)(=O)CCCN2CCOCC2)[C@@H](Cc2ccccc2)C1)c1cc(C2CC2)on1` [compound 497, N-((2S,4S)-2-benzyl-1-((3-morpholinopropyl)sulfonyl)piperidin-4-yl)-5-cyclopropylisoxazole-3-carboxamide]: the IC50 at SMYD3 [1] (setting [3]) and at SMYD3 [2] (setting [3]) was > 10000 nM throughout.
Take `O=C(N[C@H]1CCN(S(=O)(=O)CCCN2CCOCC2)[C@H](Cc2ccccc2)C1)c1cc(C2CC2)on1` [compound 498, N-((2R,4S)-2-benzyl-1-((3-morpholinopropyl)sulfonyl)piperidin-4-yl)-5-cyclopropylisoxazole-3-carboxamide]: the IC50 is 9960 nM at SMYD3 [1] (setting [3]) and > 10000 nM at SMYD3 [2] (setting [3]).
In the same order, the values of `O=C(N[C@H]1CCN(S(=O)(=O)CCN2CCOCC2)[C@H](Cc2ccccc2)C1)c1cc(C2CC2)on1` [compound 499, N-((2R,4S)-2-benzyl-1-((2-morpholinoethyl)sulfonyl)piperidin-4-yl)-5-cyclopropylisoxazole-3-carboxamide] are > 10000 nM and > 10000 nM.
`CC(C)[C@@H]1C[C@H](NC(=O)c2cc(C3CC3)on2)CCN1S(=O)(=O)CCCN` [compound 502, N-((2S,4R)-1-((3-aminopropyl)sulfonyl)-2-isopropylpiperidin-4-yl)-5-cyclopropylisoxazole-3-carboxamide]: the half-maximal inhibitory concentration (IC50) on SMYD3 [1] (setting [3]) is 766 nM; on SMYD3 [2] (setting [3]), > 10000 nM.
Taken in the same sequence, the figures for `CC(C)[C@H]1C[C@H](NC(=O)c2cc(C3CC3)on2)CCN1S(=O)(=O)CCCN` [compound 503, N-((2R,4R)-1-((3-aminopropyl)sulfonyl)-2-isopropylpiperidin-4-yl)-5-cyclopropylisoxazole-3-carboxamide] were 1060 nM and > 10000 nM.
Turning to `COCCN(C)c1ccc(S(=O)(=O)N2CC[C@H](NC(=O)c3cc(C4CC4)on3)C[C@H]2C)cn1` [compound 504, 5-cyclopropyl-N-((2R,4S)-1-((6-((2-methoxyethyl)(methyl)amino)pyridin-3-yl)sulfonyl)-2-methylpiperidin-4-yl)isoxazole-3-carboxamide], the 50% inhibitory concentration (IC50) at SMYD3 [1] (setting [3]) and at SMYD3 [2] (setting [3]) was > 10000 nM each time.
Consider `COCCNc1ccc(S(=O)(=O)N2CC[C@@H](NC(=O)c3cc(C4CC4)on3)C[C@@H]2C)cn1` [compound 505, 5-cyclopropyl-N-((2S,4R)-1-((6-((2-methoxyethyl)amino)pyridin-3-yl)sulfonyl)-2-methylpiperidin-4-yl)isoxazole-3-carboxamide], for which the IC50 at SMYD3 [1] and on SMYD3 [2] (setting [3]) was > 10000 nM each time.
Regarding `C[C@@H]1C[C@@H](NC(=O)c2cc(C3CC3)on2)CCN1S(=O)(=O)c1ccc(NCCN2CCOCC2)nc1` [compound 506, 5-cyclopropyl-N-((2R,4S)-2-methyl-1-((6-((2-morpholinoethyl)amino)pyridin-3-yl)sulfonyl)piperidin-4-yl)isoxazole-3-carboxamide], the IC50 on SMYD3 [1] (setting [3]) was 3970 nM; at SMYD3 [2] (setting [3]) it was > 10000 nM.
In the same order, the values of `C[C@H]1C[C@H](NC(=O)c2cc(C3CC3)on2)CCN1S(=O)(=O)c1ccc(NCCN2CCOCC2)nc1` [compound 507, 5-cyclopropyl-N-((2S,4R)-2-methyl-1-((6-((2-morpholinoethyl)amino)pyridin-3-yl)sulfonyl)piperidin-4-yl)isoxazole-3-carboxamide] are 5540 nM and > 10000 nM.
Taken in the same sequence, the figures for `O=C(N[C@H]1C[C@H]2CC[C@@H](C1)N2S(=O)(=O)CC1CCNCC1)c1cc(C2CC2)on1` [compound 526, 5-cyclopropyl-N-((1R,3r,5S)-8-((piperidin-4-ylmethyl)sulfonyl)-8-azabicyclo[3.2.1]octan-3-yl)isoxazole-3-carboxamide] were 1 nM and 15 nM.
Taken in the same sequence, the figures for `O=C(N[C@H]1C[C@H]2CC[C@@H](C1)N2S(=O)(=O)N1CCNCC1)c1cc(C2CC2)on1` [compound 527, 5-cyclopropyl-N-((1R,3r,5S)-8-(piperazin-1-ylsulfonyl)-8-azabicyclo[3.2.1]octan-3-yl)isoxazole-3-carboxamide] were 3 nM and 32 nM.
As for `C[C@H]1C[C@@H](NC(=O)c2cc(C3CC3)on2)CCN1S(=O)(=O)CC1CCN(CCc2ccccc2)CC1` [compound 530, 5-cyclopropyl-N-((2S,4S)-2-methyl-1-(((1-phenethylpiperidin-4-yl)methyl)sulfonyl)piperidin-4-yl)isoxazole-3-carboxamide], the IC50 at SMYD3 [1] (Table 2A) was 0.9 nM; at SMYD3 [2] (Table 2A), 23.9 nM.
Take `O=C(N[C@H]1C[C@H]2CC[C@@H](C1)N2S(=O)(=O)CC1CCN(CCO)CC1)c1cc(C2CC2)on1` [compound 531, 5-cyclopropyl-N-((1R,3r,5S)-8-(((1-(2-hydroxyethyl)piperidin-4-yl)methyl)sulfonyl)-8-azabicyclo[3.2.1]octan-3-yl)isoxazole-3-carboxamide]: the IC50 at SMYD3 [1] (Table 2A) was 0.9 nM; on SMYD3 [2] (Table 2A), 33.1 nM.
Take `C[C@H]1C[C@@H](NC(=O)c2cc(C3CC3)on2)CCN1S(=O)(=O)CC1CCN(C)CC1` [compound 533, 5-cyclopropyl-N-((2S,4S)-2-methyl-1-(((1-methylpiperidin-4-yl)methyl)sulfonyl)piperidin-4-yl)isoxazole-3-carboxamide]: the IC50 on SMYD3 [1] (Table 2A) amounted to 1 nM; on SMYD3 [2] (Table 2A), 30.8 nM.
Regarding `O=C(N[C@H]1C[C@H]2CC[C@@H](C1)N2S(=O)(=O)CC1CCN(CCCO)CC1)c1cc(C2CC2)on1` [compound 534, 5-cyclopropyl-N-((1R,3r,5S)-8-(((1-(3-hydroxypropyl)piperidin-4-yl)methyl)sulfonyl)-8-azabicyclo[3.2.1]octan-3-yl)isoxazole-3-carboxamide], the IC50 stood at 1.1 nM at SMYD3 [1] (Table 2A) and 27.7 nM on SMYD3 [2] (Table 2A).
In the same order, the values of `CNC1CCN(S(=O)(=O)N2CC[C@H](NC(=O)c3cc(C4CC4)on3)C[C@@H]2C)CC1` [compound 535, 5-cyclopropyl-N-((2S,4S)-2-methyl-1-((4-(methylamino)piperidin-1-yl)sulfonyl)piperidin-4-yl)isoxazole-3-carboxamide] are 1.2 nM and 21.2 nM.
On to `O=C(N[C@H]1C[C@H]2CC[C@@H](C1)N2S(=O)(=O)CC1CCN(Cc2ccccc2)CC1)c1cc(C2CC2)on1` [compound 536, N-((1R,3r,5S)-8-(((1-benzylpiperidin-4-yl)methyl)sulfonyl)-8-azabicyclo[3.2.1]octan-3-yl)-5-cyclopropylisoxazole-3-carboxamide], for which the IC50 at SMYD3 [1] (Table 2A) is 1.2 nM; at SMYD3 [2] (Table 2A), 58 nM.
Taken in the same sequence, the figures for `C[C@@H]1C[C@H](NC(=O)c2cc(C3CC3)on2)CCN1S(=O)(=O)CC1CCN(CCc2ccccc2)CC1` [compound 537, 5-cyclopropyl-N-((2R,4R)-2-methyl-1-(((1-phenethylpiperidin-4-yl)methyl)sulfonyl)piperidin-4-yl)isoxazole-3-carboxamide] were 1.3 nM and 72.5 nM.

Usually IC50 stands for the concentration at which inhibition is half-maximal.
